Data reported in US20230365592A1 (Agios Pharmaceuticals, Inc., priority 2022, published 2023).

target: T1, human PAH with the R408W mutation (Homo sapiens, UniProt P00439, R408W); assay: Cell Based Phenylalanine Flux Assay; settings: A375 cells expressing R408W PAH; 24 hrs with compound, then 20 µM sepiapterin and 800 µM 13C9,15N-Phenylalanine for 4 hours; 13C-Tyrosine by LC-MS; average where tested multiple times; read-out: AC50;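 note: after compound treatment, cells received sepiapterin plus isotope-labelled Phenylalanine for 4 hours, then labelled Tyrosine in the medium was quantified, 10-point 2-fold dilution series run in duplicate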
T1 construct: expressed in transfected cells
T1 sequence (P00439 1-452 R408W): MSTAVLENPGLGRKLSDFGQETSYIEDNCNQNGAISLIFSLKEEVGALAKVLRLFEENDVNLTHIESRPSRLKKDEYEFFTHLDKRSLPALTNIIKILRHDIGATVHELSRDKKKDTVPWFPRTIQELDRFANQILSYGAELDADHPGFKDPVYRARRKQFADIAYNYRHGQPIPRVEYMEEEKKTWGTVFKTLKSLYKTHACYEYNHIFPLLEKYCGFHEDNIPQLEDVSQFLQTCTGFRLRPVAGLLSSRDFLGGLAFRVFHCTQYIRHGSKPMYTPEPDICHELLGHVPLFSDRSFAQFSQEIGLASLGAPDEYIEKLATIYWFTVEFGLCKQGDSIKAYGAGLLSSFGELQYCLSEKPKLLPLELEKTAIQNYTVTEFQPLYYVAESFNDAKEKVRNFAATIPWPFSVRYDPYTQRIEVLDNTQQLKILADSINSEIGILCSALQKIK

Structure (SMILES)	AC50 [nM]
FC(F)c1cccn2nc(C3c4nc[nH]c4CCN3c3nnc(N4CCOCC4)o3)cc12 (centres unmarked)	> 5000
CC(C)(F)c1nnc(N2CCc3[nH]cnc3C2c2cc3ccccn3n2)o1 (centres unmarked)	> 5000
Cc1nc(C(C)O)oc1C(=O)N1CCc2[nH]cnc2C1c1cc2ccccn2n1 (centres unmarked)	1000 to 5000

More lines, now with the values ahead:

AC50 [nM]	Structure (SMILES)
> 5000	COCc1ncc(C(=O)N2CCc3[nH]cnc3C2c2cc3ccccn3n2)s1 (centres unmarked)
1000 to 5000	Cc1nnc(N2CCc3[nH]cnc3[C@H]2c2cc3c(F)cccn3n2)o1 (single isomer, unassigned)
1000 to 5000	Cc1c(C2c3nc[nH]c3CCN2C(=O)c2nnc(C3CC3)o2)nn2ccccc12 (centres unmarked)
1000 to 5000	Cc1cccn2nc(C3c4nc[nH]c4CCN3C(=O)c3nnc(-c4cncn4C)o3)cc12 (centres unmarked)
1000 to 5000	O=C(c1nnc(N2CCC(F)CC2)o1)N1CCc2[nH]cnc2C1c1cc2ccccn2n1 (centres unmarked)
1000 to 5000	Cc1nnc(C(=O)N2CCc3[nH]cnc3C2c2cc3ccccn3n2)o1 (centres unmarked)

same assay, conditions: A375 cells expressing human PAH R408W; 24 hrs compound incubation; 13C-Tyrosine by LC-MS; average where tested multiple times; read-out: AC50

Structure (SMILES)	AC50 [nM]
Clc1cccn2nc([C@@H]3c4nc[nH]c4CCN3c3nnc(C4CCC4)o3)cc12 [Example 1831, (S)-2-(4-(4-chloropyrazolo[1,5-a]pyridin-2-yl)-6,7-dihydro-1H-imidazo[4,5-c]pyridin-5(4H)-yl)-5-cyclobutyl-1,3,4-oxadiazole]	500 to 1000
CC(C)(C)c1nnc(N2CCc3[nH]cnc3[C@H]2c2cc3c(C(F)F)cccn3n2)o1 [Example 1825, (S)-2-(tert-butyl)-5-(4-(4-(difluoromethyl)pyrazolo[1,5-a]pyridin-2-yl)-6,7-dihydro-1H-imidazo[4,5-c]pyridin-5(4H)-yl)-1,3,4-oxadiazole]	500 to 1000
Clc1cccc2cc([C@@H]3c4nc[nH]c4CCN3c3ncccn3)nn12 [Example 2454, (S)-4-(7-chloropyrazolo[1,5-a]pyridin-2-yl)-5-(pyrimidin-2-yl)-4,5,6,7-tetrahydro-1H-imidazo[4,5-c]pyridine]	1000 to 5000
O=C(c1ocnc1C(F)F)N1CCc2[nH]cnc2[C@H]1c1cc2cc(F)ccn2n1 [Example 2400, (S)-(4-(difluoromethyl)oxazol-5-yl)(4-(5-fluoropyrazolo[1,5-a]pyridin-2-yl)-6,7-dihydro-1H-imidazo[4,5-c]pyridin-5(4H)-yl)methanone]	< 500

More lines, now with the values ahead:

AC50 [nM]	Structure (SMILES)
> 5000	Cc1ncccc1-c1nnc(N2CCc3[nH]cnc3[C@@H]2c2cc3cccc(Cl)n3n2)o1 [Example 2331, (R)-2-(4-(7-chloropyrazolo[1,5-a]pyridin-2-yl)-1,4,6,7-tetrahydro-5H-imidazo[4,5-c]pyridin-5-yl)-5-(2-methylpyridin-3-yl)-1,3,4-oxadiazole]
< 500	Cc1cccn2nc([C@@H]3c4nc[nH]c4CCN3C(=O)c3nnc(-c4ccn(C)n4)s3)cc12 [Example 1998, (S)-(5-(1-methyl-1H-pyrazol-3-yl)-1,3,4-thiadiazol-2-yl)(4-(4-methylpyrazolo[1,5-a]pyridin-2-yl)-1,4,6,7-tetrahydro-5H-imidazo[4,5-c]pyridin-5-yl)methanone]
> 5000	Cc1cccn2nc([C@H]3c4nc[nH]c4CCN3c3ccc(C(F)(F)F)cn3)cc12 [Example 1940, (R)-4-(4-methylpyrazolo[1,5-a]pyridin-2-yl)-5-(5-(trifluoromethyl)pyridin-2-yl)-4,5,6,7-tetrahydro-1H-imidazo[4,5-c]pyridine]
> 5000	Cc1cccn2nc([C@H]3c4nc[nH]c4CCN3C(=O)c3nc4ccccc4s3)cc12 [Example 2503, (R)-benzo[d]thiazol-2-yl(4-(4-methylpyrazolo[1,5-a]pyridin-2-yl)-1,4,6,7-tetrahydro-5H-imidazo[4,5-c]pyridin-5-yl)methanone]
< 500	CC(C)c1cccn2nc([C@@H]3c4nc[nH]c4CCN3C(=O)c3nnc(-c4cnccn4)o3)cc12 [Example 1934, (S)-(4-(4-isopropylpyrazolo[1,5-a]pyridin-2-yl)-1,4,6,7-tetrahydro-5H-imidazo[4,5-c]pyridin-5-yl)(5-(pyrazin-2-yl)-1,3,4-oxadiazol-2-yl)methanone]
> 5000	Cc1cccnc1-c1nnc(N2CCc3[nH]cnc3[C@@H]2c2cc3c(C(F)(F)F)cccn3n2)o1 [Example 2277, (R)-2-(3-methylpyridin-2-yl)-5-(4-(4-(trifluoromethyl)pyrazolo[1,5-a]pyridin-2-yl)-1,4,6,7-tetrahydro-5H-imidazo[4,5-c]pyridin-5-yl)-1,3,4-oxadiazole]

same assay, conditions: A375 cells expressing human R408W PAH; 24 hrs compound incubation; 13C-Tyrosine by LC-MS; average where tested multiple times; read-out: AC50

Structure (SMILES)	AC50 [nM]
CC(C)(O)c1nc(C(F)F)c(C(=O)N2CCc3[nH]cnc3[C@H]2c2cc3cccc(F)n3n2)o1 [Example 1238, (S)-(4-(difluoromethyl)-2-(2-hydroxypropan-2-yl)oxazol-5-yl)(4-(7-fluoropyrazolo[1,5-a]pyridin-2-yl)-6,7-dihydro-1H-imidazo[4,5-c]pyridin-5(4H)-yl)methanone]	< 500
O=C(c1cnn2cc(C3CC3)ccc12)N1CCc2[nH]cnc2[C@@H]1c1cc2cccc(Cl)n2n1 [Example 1745, (R)-(4-(7-chloropyrazolo[1,5-a]pyridin-2-yl)-6,7-dihydro-1H-imidazo[4,5-c]pyridin-5(4H)-yl)(6-cyclopropylpyrazolo[1,5-a]pyridin-3-yl)methanone]	> 5000
Cc1cccc2cc([C@@H]3c4nc[nH]c4CCN3C(=O)c3nc(Cl)nn3C)nn12 [Example 1086, (S)-(3-chloro-1-methyl-1H-1,2,4-triazol-5-yl)(4-(7-methylpyrazolo[1,5-a]pyridin-2-yl)-6,7-dihydro-1H-imidazo[4,5-c]pyridin-5(4H)-yl)methanone]	< 500
CCOc1cccc2cc([C@H]3c4nc[nH]c4CCN3C(=O)c3ocnc3C(F)F)nn12 [Example 1241, (R)-(4-(difluoromethyl)oxazol-5-yl)(4-(7-ethoxypyrazolo[1,5-a]pyridin-2-yl)-6,7-dihydro-1H-imidazo[4,5-c]pyridin-5(4H)-yl)methanone]	1000 to 5000
Cc1cccc2cc([C@@H]3c4nc[nH]c4CCN3C(=O)c3oc(C(C)(C)F)nc3C(F)F)nn12 [Example 1230, (S)-(4-(difluoromethyl)-2-(2-fluoropropan-2-yl)oxazol-5-yl)(4-(7-methylpyrazolo[1,5-a]pyridin-2-yl)-6,7-dihydro-1H-imidazo[4,5-c]pyridin-5(4H)-yl)methanone]	< 500
C[C@H](O)c1nc(C(F)F)c(C(=O)N2CCc3[nH]cnc3[C@@H]2c2cc3ccccn3n2)o1 [Example 693, (4-(difluoromethyl)-2-((S)-1-hydroxyethyl)oxazol-5-yl)((R)-4-(pyrazolo[1,5-a]pyridin-2-yl)-6,7-dihydro-1H-imidazo[4,5-c]pyridin-5(4H)-yl)methanone]	> 5000

Continued, values first:

AC50 [nM]	Structure (SMILES)
< 500	O=C(c1nnc(-c2ncccc2F)o1)N1CCc2[nH]cnc2[C@H]1c1cc2c(C(F)(F)F)cccn2n1 [Example 905, (S)-(5-(3-fluoropyridin-2-yl)-1,3,4-oxadiazol-2-yl)(4-(4-(trifluoromethyl)pyrazolo[1,5-a]pyridin-2-yl)-6,7-dihydro-1H-imidazo[4,5-c]pyridin-5(4H)-yl)methanone]
< 500	Cc1cccc(-c2nnc(C(=O)N3CCc4[nH]cnc4[C@H]3c3cc4cccc(F)n4n3)o2)n1 [Example 1496, (S)-(4-(7-fluoropyrazolo[1,5-a]pyridin-2-yl)-6,7-dihydro-1H-imidazo[4,5-c]pyridin-5(4H)-yl)(5-(6-methylpyridin-2-yl)-1,3,4-oxadiazol-2-yl)methanone]
> 5000	O=C(c1nnc(-c2cnccn2)o1)N1CCc2[nH]cnc2[C@@H]1c1cc2c(F)cccn2n1 [Example 963, (R)-(4-(4-fluoropyrazolo[1,5-a]pyridin-2-yl)-6,7-dihydro-1H-imidazo[4,5-c]pyridin-5(4H)-yl)(5-(pyrazin-2-yl)-1,3,4-oxadiazol-2-yl)methanone]
< 500	O=C(c1nnc(-c2cccnc2)o1)N1CCc2[nH]cnc2[C@H]1c1cc2cccc(F)n2n1 [Example 1522, (S)-(4-(7-fluoropyrazolo[1,5-a]pyridin-2-yl)-6,7-dihydro-1H-imidazo[4,5-c]pyridin-5(4H)-yl)(5-(pyridin-3-yl)-1,3,4-oxadiazol-2-yl)methanone]
< 500	Cc1cccn2nc([C@@H]3c4nc[nH]c4CCN3C(=O)c3nnc(C4CC4)o3)cc12 [Example 924, (S)-(5-cyclopropyl-1,3,4-oxadiazol-2-yl)(4-(4-methylpyrazolo[1,5-a]pyridin-2-yl)-6,7-dihydro-1H-imidazo[4,5-c]pyridin-5(4H)-yl)methanone]
> 5000	Cc1cc(-c2nnc(C(=O)N3CCc4[nH]cnc4[C@@H]3c3cc4cccc(F)n4n3)o2)nn1C [Example 1564, (R)-(5-(1,5-dimethyl-1H-pyrazol-3-yl)-1,3,4-oxadiazol-2-yl)(4-(7-fluoropyrazolo[1,5-a]pyridin-2-yl)-6,7-dihydro-1H-imidazo[4,5-c]pyridin-5(4H)-yl)methanone]
500 to 1000	Cc1nn(C)cc1-c1nnc(C(=O)N2CCc3[nH]cnc3[C@H]2c2cc3cccc(C(F)F)n3n2)o1 [Example 1582, (S)-(4-(7-(difluoromethyl)pyrazolo[1,5-a]pyridin-2-yl)-6,7-dihydro-1H-imidazo[4,5-c]pyridin-5(4H)-yl)(5-(1,3-dimethyl-1H-pyrazol-4-yl)-1,3,4-oxadiazol-2-yl)methanone]
